Laboratory results reported in patent US5776932A, “1,3,5-tribsubstituted indazole derivatives, processes for preparing, and for pharmacological treatment therewith” (Arzneimittelwerk Dresden G.m.b.H., priority 1996, dated 1998).
pIC50: −log10 of the molar value.

Experiments:
[1] = target: T1, arachidonate-5-lipoxygenase (Rattus norvegicus, UniProt P12527); experiment: Inhibition of 5-lipoxygenase in prepared macrophages from Wistar rats; type: cell-based; details: quadruple determinations, mean IC50, read-out: IC50 (50% inhibition of 5-lipoxygenase)
T1 construct: using prepared macrophages from Wistar rats; endogenous in cells; host or cells: prepared macrophages from Wistar rats
T1 sequence (P12527 1-673): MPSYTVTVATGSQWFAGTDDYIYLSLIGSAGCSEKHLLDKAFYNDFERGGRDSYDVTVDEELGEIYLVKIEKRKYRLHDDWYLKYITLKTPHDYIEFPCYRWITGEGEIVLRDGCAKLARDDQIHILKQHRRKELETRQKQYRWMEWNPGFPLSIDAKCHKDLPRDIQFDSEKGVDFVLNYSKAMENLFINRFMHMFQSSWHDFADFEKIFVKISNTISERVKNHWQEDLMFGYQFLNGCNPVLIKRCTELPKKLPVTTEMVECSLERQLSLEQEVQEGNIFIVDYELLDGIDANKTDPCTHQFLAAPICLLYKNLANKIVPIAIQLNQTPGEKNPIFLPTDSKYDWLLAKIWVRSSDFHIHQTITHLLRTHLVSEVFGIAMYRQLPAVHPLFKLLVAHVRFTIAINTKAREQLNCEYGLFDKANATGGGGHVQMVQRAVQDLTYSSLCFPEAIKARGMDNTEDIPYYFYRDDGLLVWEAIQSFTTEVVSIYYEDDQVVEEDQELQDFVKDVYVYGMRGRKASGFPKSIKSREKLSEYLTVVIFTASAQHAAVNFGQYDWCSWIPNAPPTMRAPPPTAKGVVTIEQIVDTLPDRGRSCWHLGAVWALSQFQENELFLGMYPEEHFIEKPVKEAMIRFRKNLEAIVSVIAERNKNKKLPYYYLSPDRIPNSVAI
Excerpt: Murphy, R. C. and Matthews, W. R., Purification and Characterization of Leukotrienes from Mastocytoma Cells, Methods in Enzymology, 86, pp. 409-416.
Argentiere, D. D., Ritchie, D. M. et al., Tepoxalin: A Dual Cyclooxygenase/5-Lipoxygenase Inhibitor of Arachidonic Acid Metabolism with Potent Anti-inflammatory Activity and a Favorable Gastrointestinal Profile, The Journal of Pharmacology and Experimental Therapeutics, Vol. 271, No. 3, 1399-1408, 1994.
Carter, G. W., Young, P. R. et al., 5-Lipoxygenase Inhibitory activity of Zileuton, The Journal of Pharmacology and Experimental Therapeutics, Vol. 256, No. 3, 1991.
The experiments were all conducted as quadruple determinations, by combining four partial experiments in each case were combined to determine the mean IC50 value.

[2] = tested on: tracheal segments from actively sensitized guinea-pigs; experiment: Inhibition of the antigen (ovalbumin)-induced contraction of isolated tracheal segments from actively sensitized guinea-pigs; design: species or system guinea-pig; details: Cavia porcellus, under mepyramine and indomethacin protection, read-out: maximum inhibition (ovalbumin-induced contraction)
Procedure: For this purpose, isolated tracheal segments from guinea-pigs actively sensitized against ovalbumin by the s.c. administration of 10 μg of ovalbumin with 1 mg of aluminum hydroxide adjuvant, three weeks before removal of the organ, and a booster dose of the same amount of ovalbumin and aluminum hydroxide s.c. one week before removal of the organ. The segments were placed in organ baths filled with a nutrient solution aerated with carbogen which is a mixture of 95% oxygen and 5% carbon dioxide, and kept at 37° C., and were connected to isometric force transducers. After preincubation with mepyramine to eliminate histamine, and indomethacin for the inhibition of cyclooxygenase, 5×10^-7 mol/l carbachol (carbamylcholine chloride) was added and a contraction was induced. 10 μg/ml ovalbumin as an allergen was then added to the bath liquid and the maximum contraction of the tracheal segments which was thereby induced was correlated with the effect of the carbachol as control (=100%). The test substances were added to the organ bath 30 minutes before the allergen-induced contraction. Table 2 below indicates the IC50 values, i.e. the concentrations which cause a 50% inhibition of the contraction of isolated tracheal segments from the guinea-pig. The IC50 values were determined by testing 3-4 concentrations on 4-8 organs in each case.

[3] = tested on: late phase eosinophilia; experiment: Inhibition of late phase eosinophilia 24 hours after the inhalational ovalbumin challenge on actively sensitized guinea-pigs; type: in vivo; details: -2 h; for EOS, B (eosinophils in the group treated with the substance, with challenge): x ± s
Excerpt: Eosinophilic granulocytes play an important part in the transition of allergic diseases, e.g. bronchial asthma, to the chronic stage. Thus the bronchoalveolar lavage fluid (BAL) contains an increased number of eosinophils a few hours after an allergen-induced asthmatic attack. Eosinophils are expected to play an important part in cell damage since they contain histotoxic proteins, like major basic protein (MBP) and eosinophil cation protein (ECP), in their granula. It is also assumed that substances which prevent the infiltration of eosinophils have a therapeutic action against allergic diseases like bronchial asthma.
The inhibition of eosinophil infiltration by the substances was tested in vivo on guinea-pigs actively sensitized against ovalbumin by the substantenous administration of 10 μg of OA, with 1 μg of aluminum hydroxide adjuvant, three weeks before the beginning of the experiment, and a booster dose containing the same amount of OA and aluminum hydroxide was administrated substantaneously one week before the beginning of the experiment. Three weeks after the first sensitization, the animals were placed in a plastic box and exposed to an aerosol of 0.5% OA dissolved in a physiological saline solution. The nebulization time was 20-30 seconds. After 24 hours the animals were intraperitoneally anaesthetized with 1.5 g/kg body weight ethylurethane and a bronchioalveolar lavage was performed with 2×5 ml of physiological saline solution. The lavage fluid was collected and centrifuged at 400 G for 10 minutes and the cell pellet was then resuspended in 1 ml of physiological saline solution. The eosinophils were microscopically counted in a Neubauer chamber after staining using the No. 5877 Becton-Dickinson test kit for eosinophilia. The number of eosinophils was indicated in millions per animal. Each test was also carried out with two control groups with and without antigen challenge.
The percentage inhibition of the eosinophilia in the experimental groups treated with the substance is calculated by the following formula:
(A-C)-(B-C)/(A-C)×100=% inhibition
The test substances were administered orally or intraperitoneally as a triturate in 0.5% 5-hydroxyethylcellulose two hours before the antigen challenge.

[4] = tested on: SRS-A bronchoconstriction in guinea-pigs sensitized with ovalbumin; experiment: SRS-A bronchoconstriction in anaesthetized, ovalbumin-sensitized guinea-pigs after inhalation of antigen; type: in vivo; details: -2 hrs, 1% OA, 20 inspirations
Procedure: For this purpose, guinea-pigs are actively sensitized against ovalbumin (OA) with 20 μg OA+20 mg Al(OH)3 in 0.5 ml, administered intraperitoneally (i.p.) and a booster dose of the same is administered 14 days later. One week after the booster dose, the animals are i.p. anaesthetized with urethane and connected to an apparatus (Mumed Physiological Recorder 800) for the determination of pulmonary function parameters. The animals are pretreated with mepyramine to antagonize the histamine, with indomethacin to inhibit the formation of prostaglandins, and with propanolol to eliminate β-adrenergic mechanisms. If an allergic reaction is induced after this treatment, the associated bronchospam is extensively attributable to the effect of leukotrienes.
Before the experiment the test substances were administered orally two hours before the challenge. After an equilibration period an asthmatic challenge attack is induced by the nebulization of a 1% ovalbumin solution over 20 inspirations.
The drop in dynamic compliance is used as a suitable and well reproducible parameter for characterizing the action of leukotrienes. Under control conditions, after pretreatment and ovalbumin challenge, guinea-pigs react with a slow drop in compliance of c. 30-40% over 15 minutes.

| pIC50 [1] | Compound | further results |
| --- | --- | --- |
| 6.01 | 1-(2,4-dimethylbenzyl)-5-methoxy-1H-indazole-3-ol [Example 18] |  |
| 6.77 | COc1ccc2c(c1)c(O)nn2Cc1ccc(OCc2ccccc2)cc1 [Example 1, 1-(4-benzyloxybenzyl)-5-methoxy-1H-indazole-3-ol] | inhibition at 1 µM ([2]; at 1.0 μmol/l): 36%; % inhibition (eosinophilia) ([3]; 1 mg/kg i.p.): 48.7%; EOS, B (eosinophils in the group treated with the substance, with challenge) ([3]; 1 mg/kg i.p.): 3.3 ± 1.6 mill./animal; % inhibition (eosinophilia) ([3]; 30 mg/kg p.o.): 36.0%; EOS, B (eosinophils in the group treated with the substance, with challenge) ([3]; 30 mg/kg p.o.): 3.7 ± 1.7 mill./animal |
| 6.40 | COc1ccc2c(c1)c(O)nn2Cc1ccc(Cl)cc1 [Example 2, 1-(4-chlorobenzyl)-5-methoxy-1H-indazole-3-ol] |  |
| 6.33 | COc1ccc2c(c1)c(O)nn2Cc1cccc(Cl)c1 [Example 3, 1-(3-chlorobenzyl)-5-methoxy-1H-indazole-3-ol] |  |
| 6.15 | COc1ccc2c(c1)c(O)nn2Cc1ccccc1Cl [Example 4, 1-(2-chlorobenzyl)-5-methoxy-1H-indazole-3-ol] |  |
| 6.39 | COc1ccc2c(c1)c(O)nn2Cc1ccc(Cl)c(Cl)c1 [Example 6, 1-(3,4-dichlorobenzyl)-5-methoxy-1H-indazole-3-ol] | inhibition at 3 µM ([2]; at 3.0 μmol/l): 40%; % drop in dyn. compliance ([4]; 5.0 mg/kg oral): 25 ± 9.9%; % inhibition ([4]; 5.0 mg/kg oral): 38%; % drop in dyn. compliance ([4]; 10.0 mg/kg oral): 7.0 ± 2.7%; % inhibition ([4]; 10.0 mg/kg oral): 83%; % inhibition (eosinophilia) ([3]; 1 mg/kg i.p.): 58.8%; EOS, B (eosinophils in the group treated with the substance, with challenge) ([3]; 1 mg/kg i.p.): 2.9 ± 1.2 mill./animal; % inhibition (eosinophilia) ([3]; 30 mg/kg p.o.): 40.4%; EOS, B (eosinophils in the group treated with the substance, with challenge) ([3]; 30 mg/kg p.o.): 3.5 ± 1.7 mill./animal |
| 7.00 | COc1ccc2c(c1)c(O)nn2Cc1ccc(Cl)cc1Cl [Example 7, 1-(2,4-dichlorobenzyl)-5-methoxy-1H-indazole-3-ol] |  |
| 6.12 | COc1ccc2c(c1)c(O)nn2Cc1c(Cl)cccc1Cl [Example 8, 1-(2,6-dichlorobenzl)-5-methoxy-1H-indazole3-ol] |  |
| 6.08 | COc1ccc2c(c1)c(O)nn2Cc1cccc(Cl)c1F [Example 10, 1-(3-chloro-2-flurobenzyl)-5-methoxy-1H-indazole-3-ol] |  |
| 6.12 | COc1ccc2c(c1)c(O)nn2Cc1ccc(Br)cc1 [Example 11, 1-(4-bromobenzyl)-5-methoxy-1H-indazole-3-ol] |  |
| 6.16 | COc1ccc2c(c1)c(O)nn2Cc1ccc(C(C)(C)C)cc1 [Example 19, 1-(4-tert-butylbenzyl)-5-methoxy-1H-indazole-3-ol] |  |
| 6.59 | COc1ccc2c(c1)c(O)nn2Cc1ccc(-c2ccccc2)cc1 [Example 22, 1-biphenyl-4-ylmethyl-5-methoxy-1H-indazole-3-ol] |  |
| 6.58 | COc1ccc2c(c1)c(O)nn2Cc1ccc2ccccc2c1 [Example 23, 5-methoxy-1-naphthalen-2-ylmethyl-1H-indazole-3-ol] |  |
| 6.30 | COc1ccc2c(c1)c(O)nn2Cc1cccs1 [Example 24, 5-methoxy-1-thiophen-2-ylmethyl-1H-indazole-3-ol] |  |
| 6.06 | COc1ccc2c(c1)c(O)nn2Cc1cc2c(cc1Cl)OCO2 [Example 31] |  |
| 6.52 | COc1ccc2c(c1)c(O)nn2CC=Cc1ccccc1 [Example 36, 5-methoxy-1-(3-phenylallyl)-1H-indazole-3-ol] |  |
| 6.13 | COc1ccc2c(c1)c(O)nn2CCOc1ccccc1 [Example 37, 5-methoxy-1-(3-phenoxyethyl)-1H-indazole-3-ol] |  |
| 6.18 | COc1ccc2c(c1)c(O)nn2CCCOc1ccccc1 [Example 38, 5-methoxy-1-(3-phenoxypropyl)-1H-indazole-3-ol] |  |
| 6.82 | COc1ccc2c(c1)c(O)nn2CCC(=O)c1ccccc1 [Example 39, 3-(3-hydroxy-5-methoxyindazole-1-yl)phenyl-propan-1-one] |  |
| 6.17 | COc1ccc2c(c1)c(O)nn2CCCC(=O)c1ccc(F)cc1 [Example 42, 1-(4-fluorophenyl)-4-(3-hydroxy-5-methoxy-1H-indazole-1-yl)butan-1-one] |  |
| 7.07 | COc1ccc2c(c1)c(O)nn2Cc1ccc(OCc2ccc3ccccc3n2)cc1 [Example 49] |  |
| 6.13 | Oc1ccc2c(c1)c(O)nn2Cc1ccc(Cl)c(Cl)c1 [Example 51, 1-(3,4-dichlorobenzyl)-1H-indazole-3,5-diol] |  |
| 6.59 | Oc1ccc2c(c1)c(O)nn2Cc1ccc(Cl)cc1Cl [Example 52, 1-(2,4-dichlorobenzyl)-1H-indazole-3,5-diol] |  |
| 6.56 | O=C(Nc1ccc(Cl)c(Cl)c1)Nc1ccc2c(c1)c(O)nn2Cc1ccc(Cl)cc1 [Example 61, 1-[1-(4-chlorobenzyl)-3-hydroxy-1H-indazole-5-yl]-3-(3,4-dichlorophenyl)urea] |  |
|  | COc1ccc2c(c1)c(O)nn2Cc1ccc(OCc2ccccc2)cc1 [[no label printed]] | % drop in dyn. compliance ([4]; 5.0 mg/kg oral): 32 ± 13%; % inhibition ([4]; 5.0 mg/kg oral): 20%; % drop in dyn. compliance ([4]; 10.0 mg/kg oral): 9.3 ± 11%; % inhibition ([4]; 10.0 mg/kg oral): 77% |
